Tests used:
[1] = tested on: primary BAT adipocytes from UCP1-KO mice; assay: Cellular oxygen consumption rate, primary BAT adipocytes from UCP1-KO mice; assay type: cell-based, mouse; conditions: UCP1-KO cells, 50 μM
Protocol: (§1) C2C12, U2O5, and 293A cells were cultured in DMEM with 10% FBS and pen/strep. Primary inguinal (iWAT) and brown (BAT) adipocytes were obtained as follows. The stromal-vascular fraction of inguinal (iWAT) pad from 4-12 week old male mice was dissected, minced, and digested for 45 min. at 37° C. in PBS containing 10 mM CaCl2, 2.4 U/ml dispase II (Roche), and 1.5 U/ml collagenase D (Roche). The stromal-vascular fraction of brown fat (BAT) pads from newborn (P1-P14) pups was dissected, minced, and digested for 45 min at 37° C. in PBS containing 1.3 mM CaCl2, 120 mM NaCl, 5 mM KCl, 5 mM glucose, 100 mM HEPES, 4% BSA, and 1.5 mg/ml collagenase B (Roche). […]
(§2) Cellular oxygen consumption rates were determined using an XF24 Extracellular Flux Analyzer (Seahorse Biosciences). […] C2C12 or U2OS cells were seeded at 30,000 or 50,000 cells/well, respectively in an XF24 cell culture microplate (V7-PS, Seahorse Bioscience) and analyzed the following day. Primary iWAT or BAT adipocytes were seeded at 15,000 cells/well, differentiation was induced the following day as described, and the cells were analyzed on day 5. […] For data expressed as a percentage of oligomycin-treated basal, the respiration at cycle 6 was normalized to 100%, and the maximum respiration at any time point between cycles 7 and 15 inclusive was used.

[2] = tested on: primary BAT adipocytes from UCP1-WT mice; assay: Cellular oxygen consumption rate, primary BAT adipocytes from UCP1-WT mice; assay type: cell-based, mouse; conditions: UCP1-WT cells, 50 μM
Protocol: as §1, §2

[3] = tested on: differentiated primary iWAT cells; assay: Cellular oxygen consumption rate (Seahorse XF24), differentiated primary iWAT adipocytes; assay type: cell-based, mouse; conditions: 50 μM, in presence of oligomycin (1 μM)
Protocol: (§3) C2C12, U2O5, and 293A cells were cultured in DMEM with 10% FBS and pen/strep. Primary inguinal (iWAT) and brown (BAT) adipocytes were obtained as follows. The stromal-vascular fraction of inguinal (iWAT) pad from 4-12 week old male mice was dissected, minced, and digested for 45 min. at 37° C. in PBS containing 10 mM CaCl2, 2.4 U/ml dispase II (Roche), and 1.5 U/ml collagenase D (Roche). The stromal-vascular fraction of brown fat (BAT) pads from newborn (P1-P14) pups was dissected, minced, and digested for 45 min at 37° C. in PBS containing 1.3 mM CaCl2, 120 mM NaCl, 5 mM KCl, 5 mM glucose, 100 mM HEPES, 4% BSA, and 1.5 mg/ml collagenase B (Roche). Digested tissue was diluted with adipocyte culture media (DMEM/F-12, GlutaMAX™ supplement, Life Technologies, with 10% FBS and pen/strep) and centrifuged (600×g for 10 min.). The pellet was resuspended in 10 ml adipocyte culture media, strained through a 40 μm filter, and plated. Differentiation was induced by application of an adipogenic cocktail containing 5 μg/ml insulin (Sigma), 5 μM dexamethasone (Sigma), 250 μM isobutylmethylxanthine (Sigma), and 1 μM rosiglitazone (Cayman) for 2 days. Two days after induction, cells were maintained in adipocyte culture media containing 5 μg/ml insulin and 1 μM rosiglitazone.
(§4) Cellular oxygen consumption rates were determined using an XF24 Extracellular Flux Analyzer (Seahorse Biosciences). Oligomycin was purchased from EMD Millipore, and FCCP and rotenone were purchased from Sigma. C2C12 or U2OS cells were seeded at 30,000 or 50,000 cells/well, respectively in an XF24 cell culture microplate (V7-PS, Seahorse Bioscience) and analyzed the following day. Primary iWAT or BAT adipocytes were seeded at 15,000 cells/well, differentiation was induced the following day as described, and the cells were analyzed on day 5. On the day of analysis, the cells were washed once with Seahorse respiration buffer (8.3 g/1 DMEM, 1.8 g/l NaCl, 1 mM pyruvate, 20 mM glucose, pen/strep), placed in 0.5 ml Seahorse respiration buffer, and incubated in a CO2-free incubator for 1 hr. Port injection solutions were prepared as follows (final concentrations in assay in parentheses): 10 μM oligomycin (1 μM final), […] amino acid (50 μM final), 2 μM FCCP (0.2 μM final), and 30 μM rotenone (3 μM final). The Seahorse program was run as follows: basal measurement, 3 cycles; inject port A (oligomycin), 3 cycles; inject port B (compounds), 8 cycles; inject port C (FCCP), 3 cycles; inject port D (rotenone), 3 cycles. Each cycle consisted of mix 4 min, wait 0 min, and measure 2 min. For data expressed as a percentage of oligomycin-treated basal, the respiration at cycle 6 was normalized to 100%, and the maximum respiration at any time point between cycles 7 and 15 inclusive was used.

[4] = tested on: primary inguinal fat cells, primary BAT cells, C2C12 cells, and U2OS cells; assay: Uncoupled respiration cellular assays (variety of cell types); assay type: cell-based; conditions: N-acyl amino acids at 10-100 uM
[5] = tested on: proteins in C2C12 cells; assay: UV crosslinking with photo-probe and identification of N-acyl amino acid protein targets (TAMRA in-gel fluorescence, LC-MS/MS); assay type: binding, mouse; conditions: photo-probe 50 μM, 20 min, UV irradiation 10 min
Protocol: Confluent 6-cm plates of C2C12 cells were washed twice with PBS and then treated with photo-probe (20 μM) with or without competitor (C20:4-Phe, 100 μM) in serum free media at 37° C. for 20 min. The media was aspirated. Cells were then placed on ice and UV-irradiated (10 min, UV Stratalinker 2400). Control samples were left on ice under ambient light.
Following UV irradiation, cells were then scraped, centrifuged (5 min, 1,400×g), washed once with cold PBS, and centrifuged again (5 min, 1,400×g). The cell pellets were resuspended in 0.3 ml PBS and sonicated. Click chemistry was performed as follows: To 50 μl cell lysate at 1 mg/ml was added 3 μl TBTA (stock solution: 1.7 mM in 4:1 v/v DMSO:t-BuOH), 1 ul CuSO4 (stock solution: 50 mM in water), 1 ul TCEP (freshly prepared, stock solution: 50 mM), and 1 ul TAMRA-N3 (stock solution: 1.25 mM in DMSO). Reactions were incubated at room temperature for 1 h, and then quenched with 4× SDS loading buffer (17 ul). In-gel TAMRA fluorescence was visualized on a Typhoon™ FLA 9000 scanner (GE Healthcare Life Sciences).

[6] = tested on: C2C12 cells; assay: Cellular oxygen consumption rate (uncoupled respiration), C2C12 cells; assay type: cell-based, mouse; conditions: 50 μM, after oligomycin 1 μM
Protocol: as §3, §4

[7] = biological target: T1, human PM20D1 (Homo sapiens, UniProt Q6GTS8); assay: In vitro N-acyl amino acid synthase activity of human PM20D1; assay type: biochemical; conditions: purified human PM20D1-flag, oleate 1.5 mM, head group 100 μM
T1 construct: host or cells: 293A cells, transient transfection; purified from conditioned medium
T1 sequence (Q6GTS8 26-502): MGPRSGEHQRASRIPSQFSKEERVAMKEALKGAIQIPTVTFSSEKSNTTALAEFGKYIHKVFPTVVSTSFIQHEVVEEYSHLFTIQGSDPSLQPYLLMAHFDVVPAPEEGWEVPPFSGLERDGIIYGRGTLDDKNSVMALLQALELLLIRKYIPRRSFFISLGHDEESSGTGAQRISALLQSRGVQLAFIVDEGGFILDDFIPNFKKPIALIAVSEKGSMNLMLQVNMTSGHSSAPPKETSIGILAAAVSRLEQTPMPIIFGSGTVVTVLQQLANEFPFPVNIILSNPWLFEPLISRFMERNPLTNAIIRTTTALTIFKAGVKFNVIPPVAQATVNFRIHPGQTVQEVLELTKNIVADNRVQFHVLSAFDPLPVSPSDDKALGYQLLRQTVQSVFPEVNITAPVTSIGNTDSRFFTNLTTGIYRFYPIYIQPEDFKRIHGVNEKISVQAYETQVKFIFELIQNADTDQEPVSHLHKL
Protocol: (§5) The concentrated media was centrifuged to remove debris (600×g, 10 min, 4° C.) and the supernatant containing PM20D1-flag was decanted into a new tube. PM20D1-Flag was immunoaffinity purified overnight at 4° C. from the concentrated media using magnetic Flag-M2 beads (Sigma Aldrich). The beads were collected, washed three times in PBS, eluted with 3× Flag peptide ([…] in PBS, Sigma Aldrich), aliquoted, and stored at −80° C. For the purification of human PM20D1-flag, hPM20D1-flag plasmid (Origene) was transiently transfected into 293A cells. After two days, the media was changed, harvested 24 h later, concentrated, and purified exactly as described above.
(§6) In vitro PM20D1-catalyzed synthesis of N-acyl amino acids was measured by incubating purified PM20D1 protein with oleate (1.5 mM) and phenylalanine (0.1 mM) in PBS (to 100 μl final volume) at 37° C. for 1.5 hrs. In vitro PM20D1-catalyzed N-acyl amino acid hydrolysis was measured by incubating purified PM20D1 protein with the indicated N-acyl amino acid (0.1 mM) in PBS (to 100 μl final volume) at 37° C. for 1.5 hrs. Reactions were terminated by placing the vials at −80° C. and the products generated in vitro were analyzed by mass spectroscopy (MS).
(§7) Briefly, frozen serum (30 μl) for polar metabolomic analyses were extracted in 160 μl of 1:1 acetonitrile/methanol with inclusion of internal standard D3, ^15N-serine (1 nmol). […]

[8] = biological target: T1, human PM20D1; assay: In vitro N-acyl amino acid hydrolase activity of human PM20D1; assay type: biochemical; conditions: purified human PM20D1-flag, substrate 100 μM
Protocol: as §5, §6, §7

**Q.** Which results are given for `CCCCC/C=C\C/C=C\C/C=C\C/C=C\CCCC(=O)N[C@@H](Cc1ccccc1)C(=O)O` [C20:4-Phe, N-arachidonoyl phenylalanine]?
**A.** maximal OCR versus the oligomycin-treated basal respiration [1]: 214%; maximal OCR versus the oligomycin-treated basal respiration [2]: 221%; maximal OCR versus DMSO at the same time point [3]: 214%; maximal OCR versus oligomycin-treated basal respiration [3]: 243%; uncoupled respiration in cells [4]: increased uncoupled respiration

**Q.** How did the “crosslinking assessed by in-gel TAMRA fluorescence” value [5] turn out when `C#CCCCCCCCCCCCCCCCC(=O)N[C@@H](CC1(C)N=N1)C(=O)O` [photo-probe, (S)-3-(3-methyl-3H-diazirin-3-yl)-2-(octadec-17-ynamido)propanoic acid] was run?
**A.** Its value is “robust, UV-dependent crosslinking”.

**Q.** And the “uncoupling activity (uncoupled respiration)” value [6]?
**A.** The value was “competent inducer of uncoupled respiration”.

B1: Human PM20D1: purified, recombinant human PM20D1-flag from transiently transfected 293A cells (protein, UniProt Q6GTS8 26-502, looked up)
N-fatty-acyl-amino acid …: T1 sequence (Q6GTS8 26-502)
modifications: FLAG tag
notes: purified, recombinant human PM20D1-flag from transiently transfected 293A cells
**Q.** How did the “N-acyl amino acid synthase activity” value [7] turn out when B1 was run?
**A.** Its value is “possessed N-acyl amino acid synthase and hydrolase activities”.

**Q.** What about the “N-acyl amino acid hydrolase activity” value [8] of the same molecule?
**A.** The value was “possessed N-acyl amino acid synthase and hydrolase activities”.

Reference: patent US12194080B2, “Methods for identification, assessment, prevention, and treatment of metabolic disorders using PM20D1 and N-lipidated amino acids” (Dana-Farber Cancer Institute, Inc., priority 2015, dated 2025)
